How the values were obtained:
[1] = test system: HEK293 cells; assay: Cell viability / cytotoxicity assay; format: cell-based, human; conditions: CellTiter-Glo, 18 h
[2] = target: T1, ARα2B (Homo sapiens, UniProt P18089); assay: ARα2B radioligand; format: binding; conditions: for inhibition at 10 µM: read-out: ARα2B binding (% inhibition at 10 μM)
T1 sequence (P18089 1-450): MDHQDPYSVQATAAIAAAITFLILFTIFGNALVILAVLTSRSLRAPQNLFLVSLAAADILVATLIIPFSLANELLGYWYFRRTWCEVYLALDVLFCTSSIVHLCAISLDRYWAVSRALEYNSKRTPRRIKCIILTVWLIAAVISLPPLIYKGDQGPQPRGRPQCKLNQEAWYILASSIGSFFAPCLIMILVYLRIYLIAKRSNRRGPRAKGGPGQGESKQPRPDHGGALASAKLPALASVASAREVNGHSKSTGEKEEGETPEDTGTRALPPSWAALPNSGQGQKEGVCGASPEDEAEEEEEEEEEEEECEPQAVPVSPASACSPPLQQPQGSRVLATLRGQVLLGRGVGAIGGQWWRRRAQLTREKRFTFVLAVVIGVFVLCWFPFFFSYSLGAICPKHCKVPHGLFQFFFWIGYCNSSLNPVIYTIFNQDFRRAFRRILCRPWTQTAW

[3] = target: T2, ARα2A (Homo sapiens, UniProt P08913); assay: ARα2A radioligand; format: binding; conditions: ARα2A binding Ki, competition with 3H-Rauwolscinein; concentration response
T2 sequence (P08913 1-465): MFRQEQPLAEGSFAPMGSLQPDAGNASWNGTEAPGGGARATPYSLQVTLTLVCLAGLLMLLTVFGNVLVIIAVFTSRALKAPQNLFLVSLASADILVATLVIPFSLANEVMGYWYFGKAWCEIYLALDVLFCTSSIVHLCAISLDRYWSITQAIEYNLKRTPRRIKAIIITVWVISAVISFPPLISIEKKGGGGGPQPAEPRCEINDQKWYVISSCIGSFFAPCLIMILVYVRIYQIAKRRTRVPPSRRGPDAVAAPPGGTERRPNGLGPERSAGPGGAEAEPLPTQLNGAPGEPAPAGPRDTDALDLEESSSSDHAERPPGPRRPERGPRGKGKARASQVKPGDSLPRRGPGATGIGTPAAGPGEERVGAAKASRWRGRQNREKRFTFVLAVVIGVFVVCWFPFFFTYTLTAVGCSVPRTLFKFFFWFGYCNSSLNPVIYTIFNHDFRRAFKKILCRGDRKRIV

[4] = target: T3, ARα2C (Homo sapiens, UniProt P18825); assay: ARα2C radioligand; format: binding
T3 sequence (P18825 1-462): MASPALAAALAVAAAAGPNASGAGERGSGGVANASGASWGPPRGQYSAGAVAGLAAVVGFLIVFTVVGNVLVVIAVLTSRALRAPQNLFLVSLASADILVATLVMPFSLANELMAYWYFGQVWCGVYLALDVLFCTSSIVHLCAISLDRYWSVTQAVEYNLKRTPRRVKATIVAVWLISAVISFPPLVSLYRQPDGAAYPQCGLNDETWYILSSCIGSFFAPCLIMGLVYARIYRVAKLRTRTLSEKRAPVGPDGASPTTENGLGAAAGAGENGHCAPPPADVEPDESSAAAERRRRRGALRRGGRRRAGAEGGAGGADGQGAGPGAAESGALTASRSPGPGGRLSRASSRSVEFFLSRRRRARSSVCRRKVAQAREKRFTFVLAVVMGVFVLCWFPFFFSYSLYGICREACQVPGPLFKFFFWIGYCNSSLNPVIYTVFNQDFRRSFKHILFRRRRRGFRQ

[5] = Aqueous solubility, shake flask method; format: physicochemical; conditions: pH 7.4, PBS, 24 h

Compound: C[C@H]1N=C(c2ccccc2F)c2cc(Br)ccc2NC1=O [Compound 1, (3R)-7-Bromo-5-(2-fluorophenyl)-3-methyl-1,3-dihydro-2H-1,4-benzodiazepin-2-one]
- Cytotoxicity LD50 [1]: >300 µM
- inhibition at 10 µM [2]: -6%

Compound: Cc1ccc(Nc2ccc3c(c2)C(c2ccccc2F)=NC(C)C(=O)N3)cc1 (stereo not shown) [Compound 3, 5-(2-Fluorophenyl)-3-methyl-7-(4-methylanilino)-1,3-dihydro-2H-1,4-benzodiazepin-2-one]
- Cytotoxicity LD50 [1]: 62 ± 15 µM
- Ki [3]: 2280 nM
- Ki [2]: 4640 nM
- inhibition at 10 µM [2]: 61%
- Ki [4]: 2160 nM

Compound: COc1ccc(Nc2ccc3c(c2)C(c2ccccc2F)=NC(C)C(=O)N3)cc1 (stereo not shown) [Compound 4, 5-(2-Fluorophenyl)-7-(4-methoxyanilino)-3-methyl-1,3-dihydro-2H-1,4-benzodiazepin-2-one]
- Cytotoxicity LD50 [1]: 87 ± 32 µM
- Ki [3]: 2070 nM
- inhibition at 10 µM [2]: 41%
- Ki [4]: 2080 nM

Compound: CC1N=C(c2ccccc2F)c2cc(Nc3ccc(Cl)cc3)ccc2NC1=O (stereo not shown) [Compound 5, 7-(4-Chloroanilino)-5-(2-fluorophenyl)-3-methyl-1,3-dihydro-2H-1,4-benzodiazepin-2-one]
- Cytotoxicity LD50 [1]: 87 ± 36 µM
- Ki [3]: 2080 nM
- Ki [2]: 1410 nM
- inhibition at 10 µM [2]: 81%
- Ki [4]: 1640 nM

Compound: CC1N=C(c2ccccc2F)c2cc(Nc3ccc([N+](=O)[O-])cc3)ccc2NC1=O (stereo not shown) [Compound 6, 5-(2-Fluorophenyl)-3-methyl-7-(4-nitroanilino)-1,3-dihydro-2H-1,4-benzodiazepin-2-one]
- Cytotoxicity LD50 [1]: 61 ± 10 µM
- Ki [3]: 2620 nM
- inhibition at 10 µM [2]: 36%

Compound: CSc1ccc(Nc2ccc3c(c2)C(c2ccccc2F)=NC(C)C(=O)N3)cc1 (stereo not shown) [Compound 7, 5-(2-Fluorophenyl)-3-methyl-7-((4-(methylthio)phenyl)amino)-1,3-dihydro-2H-1,4-benzodiazepin-2-one]
- Cytotoxicity LD50 [1]: 63 ± 12 µM
- Ki [3]: 3300 nM
- inhibition at 10 µM [2]: 41%
- Ki [4]: 2410 nM

Compound: CC1N=C(c2ccccc2F)c2cc(Nc3ccc(S(C)(=O)=O)cc3)ccc2NC1=O (stereo not shown) [Compound 8, 5-(2-Fluorophenyl)-7-(4-methanesulfonylanilino)-3-methyl-1,3-dihydro-2H-1,4-benzodiazepin-2-one]
- Cytotoxicity LD50 [1]: >150 µM
- inhibition at 10 µM [2]: -5%

Compound: CC1N=C(c2ccccc2F)c2cc(Nc3ccc(C#N)cc3)ccc2NC1=O (stereo not shown) [Compound 9, 7-(4-Cyanoanilino)-5-(2-fluorophenyl)-3-methyl-1,3-dihydro-2H-1,4-benzodiazepin-2-one]
- Cytotoxicity LD50 [1]: 83 ± 29 µM
- inhibition at 10 µM [2]: 23%

Compound: CC1N=C(c2ccccc2F)c2cc(Nc3ccc(O)cc3)ccc2NC1=O (stereo not shown) [Compound 10, 5-(2-Fluorophenyl)-7-((4-hydroxyphenyl)amino)-3-methyl-1,3-dihydro-2H-1,4-benzodiazepin-2-one]
- Aqueous solubility [5]: 197.9 ± 4.04 µM
- Cytotoxicity LD50 [1]: 135 ± 26 µM
- Ki [2]: 4180 nM
- inhibition at 10 µM [2]: 52%

Compound: COC(=O)c1ccc(Nc2ccc3c(c2)C(c2ccccc2F)=NC(C)C(=O)N3)cc1 (stereo not shown) [Compound 11, 5-(2-Fluorophenyl)-7-(4-methoxycarbonylanilino)-3-methyl-1,3-dihydro-2H-1,4-benzodiazepin-2-one]
- Cytotoxicity LD50 [1]: 88 ± 17 µM
- Ki [3]: 2250 nM
- inhibition at 10 µM [2]: 44%
- Ki [4]: 1540 nM

Compound: CC1N=C(c2ccccc2F)c2cc(Nc3ccc(C(F)(F)F)cc3)ccc2NC1=O (stereo not shown) [Compound 12, 5-(2-Fluorophenyl)-7-(4-trifluoromethylanilino)-3-methyl-1,3-dihydro-2H-1,4-benzodiazepin-2-one]
- Cytotoxicity LD50 [1]: >150 µM
- Ki [3]: 2590 nM
- inhibition at 10 µM [2]: 38%

Compound: CC1N=C(c2ccccc2F)c2cc(Nc3ccccc3C#N)ccc2NC1=O (stereo not shown) [Compound 13, 7-(2-Cyanoanilino)-5-(2-fluorophenyl)-3-methyl-1,3-dihydro-2H-1,4-benzodiazepin-2-one]
- Cytotoxicity LD50 [1]: >150 µM
- inhibition at 10 µM [2]: 29%

Compound: CC1N=C(c2ccccc2F)c2cc(Nc3ccccc3F)ccc2NC1=O (stereo not shown) [Compound 14, 7-(2-Fluoroanilino)-5-(2-fluorophenyl)-3-methyl-1,3-dihydro-2H-1,4-benzodiazepin-2-one]
- Aqueous solubility [5]: 26.0 ± 2.10 µM
- Cytotoxicity LD50 [1]: 90 ± 27 µM
- Ki [3]: 2240 nM
- Ki [2]: 1280 nM
- inhibition at 10 µM [2]: 82%
- Ki [4]: 2140 nM

Compound: CCc1ccccc1Nc1ccc2c(c1)C(c1ccccc1F)=NC(C)C(=O)N2 (stereo not shown) [Compound 16, 7-(2-Ethylanilino)-5-(2-fluorophenyl)-3-methyl-1,3-dihydro-2H-1,4-benzodiazepin-2-one]
- Cytotoxicity LD50 [1]: >300 µM
- inhibition at 10 µM [2]: -2%

Compound: Cc1cccc(Nc2ccc3c(c2)C(c2ccccc2F)=NC(C)C(=O)N3)c1 (stereo not shown) [Compound 18, 5-(2-Fluorophenyl)-3-methyl-7-(3-methylanilino)-1,3-dihydro-2H-1,4-benzodiazepin-2-one]
- Cytotoxicity LD50 [1]: 109 ± 12 µM
- Ki [3]: 2080 nM
- Ki [2]: 1670 nM
- inhibition at 10 µM [2]: 87%
- Ki [4]: 1180 nM

Compound: CC1N=C(c2ccccc2F)c2cc(Nc3cccc(C#N)c3)ccc2NC1=O (stereo not shown) [Compound 19, 7-(3-Cyanoanilino)-5-(2-fluorophenyl)-3-methyl-1,3-dihydro-2H-1,4-benzodiazepin-2-one]
- Cytotoxicity LD50 [1]: 165 ± 27 µM
- Ki [2]: 3250 nM
- inhibition at 10 µM [2]: 57%

Compound: Cc1ccc(Nc2ccc3c(c2)C(c2ccccc2F)=NC(C)C(=O)N3)c(C)c1 (stereo not shown) [Compound 20, 5-(2-Fluorophenyl)-7-(2,4-dimethylanilino)-3-methyl-1,3-dihydro-2H-1,4-benzodiazepin-2-one]
- Cytotoxicity LD50 [1]: 88 ± 22 µM
- inhibition at 10 µM [2]: 33%

Compound: CC1N=C(c2ccccc2F)c2cc(N(C)c3ccccc3)ccc2NC1=O (stereo not shown) [Compound 21, 5-(2-Fluorophenyl)-7-(N-methylanilino)-3-methyl-1,3-dihydro-2H-1,4-benzodiazepin-2-one]
- Cytotoxicity LD50 [1]: 158 ± 27 µM
- inhibition at 10 µM [2]: 47%

Compound: CC1N=C(c2ccccc2F)c2cc(N3CCOCC3)ccc2NC1=O (stereo not shown) [Compound 22, 5-(2-Fluorophenyl)-3-methyl-7-(morpholin-4-yl)-1,3-dihydro-2H-1,4-benzodiazepin-2-one]
- Cytotoxicity LD50 [1]: >300 µM
- inhibition at 10 µM [2]: 27%

Compound: CC1N=C(c2ccccc2F)c2cc(N3CCCCC3)ccc2NC1=O (stereo not shown) [Compound 23, 5-(2-Fluorophenyl)-3-methyl-7-(piperidin-1-yl)-1,3-dihydro-2H-1,4-benzodiazepin-2-one]
- Cytotoxicity LD50 [1]: >300 µM
- inhibition at 10 µM [2]: 61%

Compound: CC1N=C(c2ccccc2F)c2cc(NCc3ccccc3)ccc2NC1=O (stereo not shown) [Compound 24, 7-(Benzylamino)-5-(2-fluorophenyl)-3-methyl-1,3-dihydro-2H-1,4-benzodiazepin-2-one]
- Cytotoxicity LD50 [1]: >150 µM
- inhibition at 10 µM [2]: 46%

Compound: CC1N=C(c2ccccc2F)c2cc(NC(C)(C)C)ccc2NC1=O (stereo not shown) [Compound 25, 7-(tert-Butylamino)-5-(2-fluorophenyl)-3-methyl-1,3-dihydro-2H-1,4-benzodiazepin-2-one]
- Aqueous solubility [5]: 393.6 ± 10.40 µM
- Cytotoxicity LD50 [1]: >300 µM
- inhibition at 10 µM [2]: 40%

Compound: CC1N=C(c2ccccc2F)c2cc(NC3CCCCC3)ccc2NC1=O (stereo not shown) [Compound 26, 7-(Cyclohexylamino)-5-(2-fluorophenyl)-3-methyl-1,3-dihydro-2H-1,4-benzodiazepin-2-one]
- Cytotoxicity LD50 [1]: >300 µM
- inhibition at 10 µM [2]: 64%

Compound: CC1N=C(c2ccccc2F)c2cc(N(C)C)ccc2NC1=O (stereo not shown) [Compound 27, 7-(Dimethylamino)-5-(2-fluorophenyl)-3-methyl-1,3-dihydro-2H-1,4-benzodiazepin-2-one]
- Cytotoxicity LD50 [1]: >300 µM
- inhibition at 10 µM [2]: 45%

Reference: PMC12495306 (RSC Medicinal Chemistry, 2025)
